The test system of one assay is plasmid DNA. Kind of assay: Plasmid DNA breakage, ^123I/^125I double isotope method. It counts as biochemical. The text has this:
The experimental design exploits the plasmid DNA assay system, and agarose gel electrophoresis, as described previously to evaluate DNA breakage by the labelled minor groove binding DNA ligand, ^125I-iodoHoechst 33258 (Lobachevsky, Karagiannis and Martin 2004).
The accumulation of DNA single-stranded breaks and DNA double-stranded breaks is monitored by quantitation of the decline in the fraction of intact supercoiled plasmid (S), and the corresponding increase in the fractions of relaxed (R) and linear (L) species, with the progressive accumulation of decay events. Various assumptions enable the derivation of the relationship between the parameters S, R and L (or their normalised counterparts S′, R′ and L′), the number of decay events (n), and for example, the yield of double-stranded breaks per decay (d) of isotope in DNA-bound ligand. […] Accordingly, a double isotope strategy was developed, using a mixture of ^123I- and ^125I-iodoHoechst 33258. This approach yields a ratio d values, providing an estimate of the relative efficiency (^123I relative to ^125I) for double-strand breaks per decay, which is independent of f.
The basis of the double isotope method is apparent from the following relationship:
Where n1 is the number of ^123I decays, and n1m is the maximum (ie at time=infinity) number of ^123I decays.
A plot of the LHS term of the above equation versus n2 (the number of ^125I decay events in the incubation mixture) yields a two phase curve, the 2nd phase of which approaches a straight line (when n1=n1m). The values for the apparent breakage DNA dsb efficiency of ^123I and ^125I decays (da1 and da2, respectively) are obtained from the y intercept and from the gradient of the asymptote of the second phase of the curve, as shown in FIG. 14.
The apparent breakage efficiency is related to the actual efficiency of DNA-bound decay events, d, by the expression: da=df+δA
Where δA is the term for the “external” component of damage, arising from decay of non-DNA-bound isotope, which can be ignored because of the particular conditions of the
[formula] experiment, particularly, a low DNA concentration, A. Thus analysis of the data as exemplified in FIG. 14 provides the ratio of breakage efficiencies of ^123I versus ^125I decays.

A further assay relates to K562 cells. Kind of assay: K562 cell survival after incubation with labelled iodoHoechst 33258. The assay is classed as cell-based, human. Conditions: 500 nM for 1 hour at 37° C., decays accumulated at 5° C. for 24 hours. On the procedure: Cells (5×10^5/ml) in RPMI-1640 medium containing 10% FBS and gentamicin were incubated with varying specific activities of ^127I/^123I-iodoHoechst 33258 (500 nM) for 1 hour at 37° C. Following incubation the cells were separated from the supernatant by 3 centrifugation (400×g for 3 minutes)-wash cycles. The cell pellets were suspended in RPMI medium and ^123I-decays were accumulated at 5° C. for 24 hours. Following accumulation of decays, the cell-pellets were isolated by centrifugation at 400×g for 3 minutes, suspended in AMEM containing 20% FBS and an appropriate cell number from each of the samples was cloned in semi-solid (0.33% (w/v)) noble agar in 6-well microtiter plates, as discussed above.

Where “and” joins values, the source holds several entries; their conditions need not be identical. Equal entries are not always repeated.

Consider `CN1CCN(c2ccc3nc(-c4ccc5nc(-c6ccc(O)c(I)c6)[nH]c5c4)[nH]c3c2)CC1` [^123I-iodoHoechst 33258], for which the “da1(^123I), apparent DNA dsb breakage efficiency” value in the assay on plasmid DNA (DMSO added to 10% (D series)) is 0.158 and 0.170 and 0.159; in the assay on plasmid DNA (aqueous buffer (N series)), 0.244 and 0.253 and 0.314. For the same compound, the “da1(^123I)/da2(^125I)” value was 0.63 and 0.69 and 0.62 in the assay on plasmid DNA (DMSO added to 10% (D series)); 0.59 and 0.64 and 0.66 with plasmid DNA (aqueous buffer (N series)). The “Average da1(^123I)/da2(^125I)” value with plasmid DNA (DMSO added to 10% (D series), samples D1.2-D3.2) came out at 0.65 ± 0.03; with plasmid DNA (aqueous buffer (N series), samples N1.2-N3.2), 0.63 ± 0.03. Moreover, the “decays required for a lethal event” value in the assay on K562 cells was “about 230 ^123I-decays per cell”.

These data come from patent publication US8097238B2, “Cell targeting conjugates” (Peter MacCallum Cancer Institute, priority 2004, dated 2012).
